Test systems include NCI-H522; EKVX; T47D; IGROV-1; HT-29; DU-145; PC-3; MCF7; HCT-15; MOLT-4; COLO 205; SN12C; CCRF-CEM; CAKI-1; M14; Malme-3M; HCT-116; OVCAR-3; NCI-H23; NCI/ADR-RES.
Common to all, as to assay: NCI tumour cell line growth inhibition, 48 h

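The compound was tested at five concentrations on cells cultured in 96-well plates, with a 48-hour exposure period. Abbreviation: GI50, concentration required for 50% inhibition of growth.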 Activity calls are given as the source filed them. No stated cut-off is given here; in the data, active = GI50 up to about 1.1 µM and inactive = higher.

Results on four compounds are retold here after ChEMBL document CHEMBL1201862, “PubChem BioAssay data set” (2004).

Consider `COc1cc(/C=C2/C[C@H]3[C@@H]4CC=C5C[C@@H](OC(C)=O)CC[C@]5(C)[C@H]4CC[C@]3(C)NC2=O)cc(OC)c1OC`, for which the GI50 is 24.6 µM (inactive) with NCI-H522; 26.6 µM (inactive) in the experiment with EKVX; 22 µM (inactive) in the experiment with T47D; 30 µM (inactive) with IGROV-1; 38.7 µM (inactive) in the experiment with HT-29; 20.8 µM (inactive) in the experiment on DU-145. Moreover, the GI50 in the experiment on PC-3 is 19 µM (inactive); with MCF7 it was 25.4 µM (inactive); in the experiment with HCT-15 it was 32.7 µM; with MOLT-4, 16.9 µM (inactive); with COLO 205, > 100 µM (inactive); with SN12C, 29.6 µM (inactive). Besides, the GI50 was 49.4 µM (inactive) in the experiment on CCRF-CEM; 29.5 µM (inactive) in the experiment on CAKI-1; 36.5 µM (inactive) in the experiment on M14; 25.6 µM (inactive) in the experiment on Malme-3M; 26.4 µM (inactive) in the experiment on HCT-116; 31.3 µM (inactive) in the experiment on OVCAR-3. Besides, the figures for the GI50 with NCI-H23 and with NCI/ADR-RES were 23.9 µM (inactive) and 20 µM (inactive), respectively.

For `Cc1cc2nc(O)c(C(C)C(=O)c3ccc(Cl)cc3)nc2cc1C` (stereo not given), the GI50 in the experiment on NCI-H522 was 31.6 µM (inactive); with EKVX, 14.2 µM (inactive); in the experiment with T47D, 32.3 µM (inactive); in the experiment with IGROV-1 it was 61.9 µM (inactive); in the experiment with HT-29, 22.1 µM (inactive); with DU-145, 53.1 µM (inactive). In addition, the GI50 was 31 µM (inactive) in the experiment with PC-3; 27.5 µM (inactive) in the experiment on MCF7; 44.7 µM in the experiment on HCT-15; 27.7 µM (inactive) in the experiment with MOLT-4; 22 µM (inactive) in the experiment with COLO 205; 50.7 µM (inactive) in the experiment with SN12C. Moreover, the GI50 is 26.7 µM (inactive) with CCRF-CEM; 81.7 µM (inactive) in the experiment on CAKI-1; 45.6 µM (inactive) in the experiment on M14; 71.6 µM (inactive) with Malme-3M; 33.6 µM (inactive) in the experiment on HCT-116; 49.1 µM (inactive) with OVCAR-3. Besides, the GI50 in the experiment on NCI-H23 is 46.3 µM (inactive); in the experiment on NCI/ADR-RES it was 28.6 µM (inactive).

Regarding `O=C1/C(=C(/Br)I)c2ccccc2-c2ccccc21`, the GI50 in the experiment with NCI-H522 is 2.09 µM (inactive); in the experiment with EKVX, 18 µM (inactive); in the experiment on T47D it was 11.9 µM (inactive); in the experiment on IGROV-1 it was 13.2 µM (inactive); with HT-29, 6.55 µM (inactive); in the experiment with DU-145, 16.3 µM (inactive). For the same compound, the GI50 in the experiment with PC-3 is 8.34 µM (inactive); in the experiment with MCF7 it was 8.85 µM (inactive); in the experiment on HCT-15 it was 4.34 µM; in the experiment with MOLT-4 it was 2.21 µM (inactive); in the experiment with COLO 205 it was 2.04 µM (inactive); with SN12C, 16.2 µM (inactive). Besides, the GI50 in the experiment on CCRF-CEM was 2.16 µM (inactive); in the experiment with CAKI-1, 5.57 µM (inactive); with M14 it was 9.95 µM (inactive); with Malme-3M it was 3.56 µM (inactive); in the experiment with HCT-116 it was 7.85 µM (inactive); in the experiment on OVCAR-3, 9.98 µM (inactive). The figures for the GI50 in the experiment with NCI-H23 and in the experiment with NCI/ADR-RES were 18.1 µM (inactive) and 9.02 µM (inactive), respectively.

Consider `O=C1C(Br)=CC2(C=C1Br)CCNC1=C2C(=O)c2ncccc2C1=O`, for which the GI50 with NCI-H522 is 0.353 µM (active); in the experiment with EKVX, 1.65 µM (inactive); in the experiment on T47D it was 1.97 µM (inactive); in the experiment with IGROV-1 it was 0.54 µM (active); in the experiment with HT-29 it was 1.99 µM (inactive); in the experiment on DU-145 it was 1.68 µM (inactive). Moreover, the GI50 in the experiment with PC-3 was 1.95 µM (inactive); with MCF7, 1.14 µM (inactive); in the experiment on HCT-15, 0.618 µM; in the experiment with MOLT-4 it was 1.83 µM (inactive); in the experiment on COLO 205, 1.89 µM (inactive); in the experiment with SN12C, 1.21 µM (inactive). In addition, the GI50 was 1.58 µM (inactive) in the experiment on CCRF-CEM; 1.61 µM (inactive) with CAKI-1; 1.55 µM (inactive) in the experiment with M14; 1.09 µM (active) in the experiment on Malme-3M; 0.634 µM (active) with HCT-116; 1.62 µM (inactive) in the experiment on OVCAR-3. Moreover, the GI50 is 0.39 µM (active) in the experiment with NCI-H23 and 1.82 µM (inactive) with NCI/ADR-RES.
